Assays:
S. aureus = assay: in vitro antibacterial activity (MIC assay, 96-well, absorbance at 600 nm); format: cell-based, Staphylococcus aureus; details: for inhibition of bacterial cells: at higher concentration, S. aureus
Procedure: (§1) The in vitro antibacterial activity was tested using a Gram-positive bacterial pathogen, S. aureus, and sensitive and resistant strains of a Gram-negative bacterial pathogen, P. aeruginosa using a high-throughput format in a 96-well microtiter plate, as described previously. Briefly, an inoculum of the test organism was grown to mid-log phase in a Luria broth (LB) medium containing 10 g/L tryptone, 5 g/L yeast extract, and 10 g/L sodium chloride. A 50 μL aliquot of the 100-fold diluted bacterial inoculum was placed in each test well. […]. All experiments were performed in triplicate. For each measurement, three samples in each replicate were analyzed and data were recorded as mean±standard deviation (SD). A paired two-tailed t-test was employed for mean comparison, with significance determined at p<0.05. The dcata analysis was conducted using the Excel program.
(§2) The antibacterial effectiveness of complexed FQs was assessed in comparison to uncomplexed FQs against Gram-positive Staphylococcus aureus (S. aureus) and Gram-negative Pseudomonas aeruginosa (P. aeruginosa) through a minimum inhibitory concentration (MIC) assay conducted at various concentrations. […] The percentage growth inhibition of bacterial cells treated with complexed and uncomplexed FQs was determined by comparing with the untreated control (FIGS. 13A-13C). The concentrations tested for P. aeruginosa and S. aureus varied based on the MIC of individual antibiotics. […]

P. aeruginosa = assay: as above; format: cell-based, Pseudomonas aeruginosa; details: for inhibition of bacterial cells: at higher concentration, P. aeruginosa
Procedure: as §1, §2

[1] = partition coefficient (Ko/w) n-octanol / phosphate buffer; format: physicochemical; details: octanol / phosphate buffer pH 7.4, 25 °C, 24 h; complexes with 10 times higher host stock

Structure (SMILES) | killing of S. aureus (S. aureus; 12 μg/mL, 24 h, FIG. 13A) | inhibition of bacterial cells (S. aureus) | killing of P. aeruginosa bacteria (P. aeruginosa; 4 μg/mL, 24 h, FIG. 13A) | inhibition of bacterial cells (P. aeruginosa) | log P (experimental partition coefficient Ko/w) [1] | inhibition at 128 µg/mL (S. aureus; Staphylococcus aureus, 128 μg/mL, 24 h, FIG. 13B, read-out: inhibitory effect on S. aureus cells) | inhibitory effect on P. aeruginosa cells (P. aeruginosa; […] (so in the source), 24 h, FIG. 13B)
O=C(O)c1cn(C2CC2)c2cc(N3CCNCC3)c(F)cc2c1=O [CIPRO, ciprofloxacin] | 98.30±0.26% | 90% | 100.67±0.39% | 90% |  |  | 
C[C@H]1COc2c(N3CCN(C)CC3)c(F)cc3c(=O)c(C(=O)O)cn1c23 [LEVO, levofloxacin] |  | 90% |  | 90% | −0.41 |  | 
CCn1cc(C(=O)O)c(=O)c2cc(F)c(N3CCNCC3)cc21 [NOR, norfloxacin] |  | 90% |  | 90% |  | 97.9 ± 0.38% | 100.43±0.17%
CC1c2cc(c(O)c(CS(=O)(=O)O)c2O)C(C)c2cc(c(O)c(CS(=O)(=O)O)c2O)C(C)c2cc(c(O)c(CS(=O)(=O)O)c2O)C(C)c2cc1c(O)c(CS(=O)(=O)O)c2O (stereo not drawn) [SRsC1, sulfonato-C-methylresorcin[4]arene] |  |  |  |  | −0.99 |  | 

— patent publication US20250049946A1, “SULFONATO RESORCINARENE-COMPLEXED FLUOROQUINOLONES AND METHODS OF USE” (University of Cincinnati, priority 2023, published 2025)
